Experimental data: patent US10548897B2, “KSR antagonists” (Icahn School of Medicine at Mount Sinai, priority 2015, dated 2020)
Where a name gives a salt, the structure may show the parent alone. Read-outs that look alike come from different tables or passages of the source.

Assays:
[1] = target: KSR2 (purified hKSR2-rMEK1 complex) (Homo sapiens (Human), UniProt Q6VAB6); test: ATP-biotin probe labeling and inhibitor competition (KSR2 band); type: binding; conditions: for competition of ATPbiotin probe labeling in KSR2:MEK1 complexes (in words): screen / SAR statements; for KSR binding (assessed): panel of known kinase inhibitors
Chain of KSR2 (purified hKSR2-rMEK1 complex) (Q6VAB6 634-950): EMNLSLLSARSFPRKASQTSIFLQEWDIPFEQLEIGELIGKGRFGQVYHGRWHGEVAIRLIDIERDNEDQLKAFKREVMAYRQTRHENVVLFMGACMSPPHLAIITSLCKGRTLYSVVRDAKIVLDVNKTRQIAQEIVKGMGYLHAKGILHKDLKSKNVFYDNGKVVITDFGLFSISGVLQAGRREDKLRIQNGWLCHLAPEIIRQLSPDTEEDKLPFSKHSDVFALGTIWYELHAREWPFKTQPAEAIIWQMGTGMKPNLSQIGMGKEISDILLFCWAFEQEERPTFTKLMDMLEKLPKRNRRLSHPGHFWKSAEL
Chain of KSR2 (purified hKSR2-rMEK1 complex) (P29678 whole entry partner, the tested form may be a part): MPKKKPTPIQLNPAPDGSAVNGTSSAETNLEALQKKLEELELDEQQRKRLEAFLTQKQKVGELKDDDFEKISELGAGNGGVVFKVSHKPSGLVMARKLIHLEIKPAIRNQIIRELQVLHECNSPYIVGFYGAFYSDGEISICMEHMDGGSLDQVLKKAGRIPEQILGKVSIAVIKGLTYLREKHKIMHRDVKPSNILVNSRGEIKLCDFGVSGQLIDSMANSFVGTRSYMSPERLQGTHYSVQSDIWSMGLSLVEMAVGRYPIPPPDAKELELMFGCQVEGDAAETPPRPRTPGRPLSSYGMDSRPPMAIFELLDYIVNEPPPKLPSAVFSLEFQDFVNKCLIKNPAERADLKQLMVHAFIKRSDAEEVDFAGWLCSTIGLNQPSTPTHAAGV
Description: Human KSR2 (residues 634-950) and rabbit MEK1 (residues 1 to 393) were codon optimized for insect cell expression by DNA 2.0. Inserts were expressed with TEV cleavable 6×-His tags from the pFastBac Dual expression vector. Bacmids were used to transfect adherent SF21 cells and viruses were subsequently titred to high levels through serial infections of SF21 cells. […] Briefly, following infections, cells were harvested, lysed, and affinity purified using Co2+ sepharose resin (GoldBio). […] Dialysis retentate was diluted 3 fold and then applied to a Resourse S ion exchange column. […] One-to-one hKSR2-MEK1 complexes were captured in late fractions from an increasing salt gradient. Complexes were later applied to a 120 mL Superdex 200 gel filtration column and finally concentrated to approximately 10 mg/mL before flash freezing for biochemical assays.
The ATP-biotin assay was performed in buffer containing 25 mM Tris pH 7.5, 150 mM NaCl, 10 mM MgCl2, and 2% DMSO. […] In particular, hKSR2-rMEK1 was pre-incubated with 20 μM of the indicated compounds for 15 minutes. Then, ATP-biotin (Pierce Cat. #88310) was added to a final concentration of 2 μM. Reactions were incubated at room temperature for 5 minutes before being stopped by the addition of 6×SDS loading dye. […] Enhanced chemiluminescence signals corresponding to labeling on KSR2 and MEK1 were visualized and quantified using the Biodoc system (Biorad). Relative signals of Streptavidin HRP on bands corresponding to KSR2 and MEK1 in the presence of compounds relative to DMSO controls were used to determine ‘Percent Inhibition of ATP Probe Labeling’.
For the ATP^biotin labeling competition screen, samples were applied to a 4-20% Tris-HCl gel, separated, and then transferred to a nitrocellulose membrane. The membrane was blocked with 5% bovine serum albumin diluted in TBS-T for 30 minutes and subsequently probed with the Pierce™ High Sensitivity Streptavidin-HRP. After several washes, the membranes were visualized using enhanced chemiluminescence on a Biodoc (Biorad).

[2] = target: MEK1 (purified hKSR2-rMEK1 complex) (Oryctolagus cuniculus (Rabbit), UniProt P29678); test: ATP-biotin probe labeling competition (MEK1 band); type: binding; conditions: competition with free ATP, purified KSR2:MEK1; read-out: free ATP IC50, ATPbiotin labeling of MEK1
Chain of MEK1 (purified hKSR2-rMEK1 complex) (P29678 whole entry, the tested form may be a part): as the sequence (P29678 whole entry partner, the tested form may be a part) above
Chain of MEK1 (purified hKSR2-rMEK1 complex) (Q6VAB6 634-950 partner): as the sequence (Q6VAB6 634-950) above
Description: Human KSR2 (residues 634-950) and rabbit MEK1 (residues 1 to 393) were codon optimized for insect cell expression by DNA 2.0. Inserts were expressed with TEV cleavable 6×-His tags from the pFastBac Dual expression vector. Bacmids were used to transfect adherent SF21 cells and viruses were subsequently titred to high levels through serial infections of SF21 cells. […] Briefly, following infections, cells were harvested, lysed, and affinity purified using Co2+ sepharose resin (GoldBio). […] Dialysis retentate was diluted 3 fold and then applied to a Resourse S ion exchange column. This step removed excess MEK1, which binds weakly to the S column. One-to-one hKSR2-MEK1 complexes were captured in late fractions from an increasing salt gradient. Complexes were later applied to a 120 mL Superdex 200 gel filtration column and finally concentrated to approximately 10 mg/mL before flash freezing for biochemical assays.
The ATP-biotin assay was performed in buffer containing 25 mM Tris pH 7.5, 150 mM NaCl, 10 mM MgCl2, and 2% DMSO. Purified hKSR2-rMEK1 was assayed at 0.5 μM. In particular, hKSR2-rMEK1 was pre-incubated with 20 μM of the indicated compounds for 15 minutes. Then, ATP-biotin (Pierce Cat. #88310) was added to a final concentration of 2 μM. […] Enhanced chemiluminescence signals corresponding to labeling on KSR2 and MEK1 were visualized and quantified using the Biodoc system (Biorad). […]

[3] = test system: KSR-stimulated MEK and ERK phosphorylation; test: Cell-based reconstitution system monitoring KSR-driven MAPK signaling; conditions: for suppression of KSR-stimulated MEK and ERK phosphorylation: KSR expression-dependent MAPK signaling
Description: To assess the biological function of lead compounds as Ras-MAPK pathway antagonists, a simplified cell-based reconstitution system was developed to directly monitor KSR-driven MAPK signaling. […] Based on similarity in phenotype and direct-binding activity, Compound 21 was identified as a small molecule mimic of KSR alleles that suppress oncogenic Ras mutations.

[4] = test system: MAPK pathway readouts (pERK, pMEK, pRSK) in A375 and HCT-116; test: Western blot of MAPK pathway readouts, treatment with trametinib combinations; type: cell-based; conditions: for MAPK pathway inhibition (pERK, pMEK, pRSK) in combination with trametinib: combined with trametinib, A375 and HCT-116
KSR2:B-RAF^F667E dimers = KSR2:B-RAF^F667E dimers (Homo sapiens, UniProt Q6VAB6); test: Biolayer inferometry of KSR2:B-RAF dimerization (Octet Red96); type: binding; conditions: compound at 25 μM
Procedure: B-RAF and B-RAF mutants (F667E+/−R509H) were immobilized on sensor-heads and KSR2:MEK1 or MEK1 assembly was monitored. Curves indicate dose ranges of KSR2:MEK1 or MEK1 from 625 nM to 10 μM. In all plots, association occurred from 0 to 660 seconds, and dissociation was monitored thereafter up to 1500 seconds. Compound 21 and trametinib were added in the presence of KSR2:MEK1 at a concentration of 25 μM each.
To directly investigate the impact of Compound 21 on KSR2:B-RAF dimerization, bio-layer inferometry (BLI) was utilized to monitor real-time association and dissociation of KSR2:MEK1 or free MEK1 to a sensor tethered with immobilized B-RAF.
To specifically monitor KSR2:B-RAF dimerization relative to other possible interactions, a mutation in B-RAF^F667E was identified that eliminates binding to free MEK but not KSR2-MEK1 complexes, as shown in FIGS. 7C-7D. […]
Interactions between purified B-RAF and the KSR2:MEK1 complex were measured using biolayer inferometry on the Octet Red96 system (Forte Bio). […] Association and dissociation was monitored over 660 and 840 seconds, respectively. Data sets were normalized and analysed using global fit binding models (Fortebio software). […]

[5] = ATPbiotin probe labeling competition, 0.1 μM KSR2:MEK1, 27 nM to 20 μM compound, triplicate, read-out: KSR2 IC50

`Nc1ncnc2c1ncn2[C@@H]1O[C@H](COP(=O)(O)OP(=O)(O)OP(=O)(O)O)[C@@H](O)[C@H]1O` [ATP, reference compound] was tested. Which IC50 ([1]; competition with free ATP, purified KSR2:MEK1, read-out: free ATP IC50, ATPbiotin labeling of KSR2) did it give?
Its IC50 is 86 µM.

And the IC50 [2]?
The IC50 was 133 µM.

For `COc1cc2ncnc(Nc3ccc(Oc4ccccc4)cc3)c2cc1OC.Cl` [Compound 2, 6,7-Dimethoxy-N-(4-phenoxyphenyl)quinazolin-4-amine], which “competition of ATPbiotin probe labeling in KSR2:MEK1 complexes (in words)” value (“competition of ATPbiotin probe labeling” for short) [1] is on record?
Its value is “competitor of probe labeling”.

How did the IC50 [1, 5] turn out when `COc1ccc(Nc2ncnc3cc(OC)c(OC)cc23)cc1` [Compound 3, 6,7-Dimethoxy-N-(4-methoxyphenyl)quinazolin-4-amine hydrochloride] was run?
The IC50 was > 10 µM.

For `COc1cc2ncnc(Nc3ccc(O)cc3)c2cc1OC` [Compound 7, 4-((6,7-Dimethoxyquinazolin-4-yl)amino)phenol hydrochloride], which IC50 [1, 5] is on record?
Its IC50 is > 10 µM.

Which “competition of ATPbiotin probe labeling” value [1] does the source give for `COc1cc2nccc(Nc3ccc(Oc4ccccc4)cc3)c2cc1OC.Cl` [Compound 11, 6,7-Dimethoxy-N-(4-phenoxyphenyl)quinolin-4-amine hydrochloride] here?
Its value is “moderately tolerated”.

Which IC50 [1, 5] does the source give for `COc1cc2/c(=N/c3ccc(Oc4ccccc4)cc3)ncn(C)c2cc1OC` [Compound 32, (Z)—N-(6,7-Dimethoxy-1-methylquinazolin-4(1H)-ylidene)-4-phenoxyaniline] here?
The IC50 was > 10 µM.

What about the “competition of ATPbiotin probe labeling” value [1] of the same molecule?
The value was “greatly diminishes KSR2:MEK1 activity”.

`COc1cc2ncnc(Nc3ccc(Oc4ccccc4)c(C)c3C)c2cc1OC.Cl` [Compound 50, N-(2,3-Dimethyl-4-phenoxyphenyl)-6,7-dimethoxyquinazolin-4-amine hydrochloride] was tested. Which IC50 [1, 5] did it give?
Its IC50 is > 10 µM.

And the “suppression of KSR-stimulated MEK and ERK phosphorylation” value [3]?
The value was “inactive”.

With `CCCS(=O)(=O)Nc1ccc(F)c(C(=O)c2c[nH]c3ncc(Cl)cc23)c1F` [PLX4720] as the molecule, how does the “MAPK pathway inhibition (pERK, pMEK, pRSK) in combination with trametinib” value (“MAPK pathway inhibition … with trametinib” below) [4] read?
The value was “did not display the same pathway inhibition”.

With `CC(C)(C)c1nc(-c2cccc(NS(=O)(=O)c3c(F)cccc3F)c2F)c(-c2ccnc(N)n2)s1` [dabrafenib, reference compound] as the molecule, how does the “suppression of KSR-stimulated MEK and ERK phosphorylation” value [3] read?
Its value is “active”.

What about the “suppression of KSR-stimulated MAPK signaling with active site mutant KSR^A690F” value ([3]; KSR^A690F mutant) of the same molecule?
Its value is “active”.

What does the source list for `Cc1nc(Nc2ncc(C(=O)Nc3c(C)cccc3Cl)s2)cc(N2CCN(CCO)CC2)n1` [dasatinib, reference compound]?
KSR binding (assessed) [1]: non-KSR binders; MAPK pathway inhibition (pERK, pMEK, pRSK) in combination with trametinib [4]: not observed

`C#Cc1cccc(Nc2ncnc3cc(OCCOC)c(OCCOC)cc23)c1` [erlotinib, reference compound] was tested. Which “KSR binding (assessed)” value [1] did it give?
Its value is “non-KSR binders”.

And the “MAPK pathway inhibition … with trametinib” value [4]?
The value was “not observed”.

What does the source list for `CS(=O)(=O)CCNCc1ccc(-c2ccc3ncnc(Nc4ccc(OCc5cccc(F)c5)c(Cl)c4)c3c2)o1` [lapatinib, reference compound]?
KSR binding (assessed) [1]: non-KSR binders; MAPK pathway inhibition (pERK, pMEK, pRSK) in combination with trametinib [4]: not observed

With `CCN(CC)CCNC(=O)c1c(C)[nH]c(/C=C2\C(=O)Nc3ccc(F)cc32)c1C` [sutent, reference compound] as the molecule, how does the “KSR binding (assessed)” value [1] read?
Its value is “non-KSR binders”.

What about the “MAPK pathway inhibition … with trametinib” value [4] of the same molecule?
Its value is “not observed”.

For `CC(=O)Nc1cccc(-n2c(=O)n(C3CC3)c(=O)c3c(Nc4ccc(I)cc4F)n(C)c(=O)c(C)c32)c1` [trametinib, reference compound], which “MAPK pathway inhibition (pERK, pMEK, pRSK), single agent” value ([4]; alone, compared with Compound 21 + trametinib co-treatment) is on record?
Its value is “did not display the same pathway inhibition”.

And the “enhancement of KSR2:B-RAF dimerization” value (KSR2:B-RAF^F667E dimers)?
The value was ~2 fold.
